Source: PubChem BioAssay (NCI)
Values joined by “and” are separate entries in the source; they are usually repeats but may differ in a detail not shown here. Identical values can stand only once.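 Values below derive from 48-hour exposures of cells grown in 96-well plates, with endpoints linearly interpolated between the two concentrations bracketing the appropriate inhibition level. GI50 marks 50% less growth. TGI denotes the concentration required for complete inhibition of growth.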

Assays:
Experiment in all cases: growth of human tumour cells (NCI), 48 h
HCT-116 colon = system: HCT-116 colon
CCRF-CEM leukemia = system: CCRF-CEM leukemia
OVCAR-3 ovarian = system: OVCAR-3 ovarian
SF-295 CNS = system: SF-295 CNS
NCI-H460 lung = system: NCI-H460 lung
NCI-H522 lung = system: NCI-H522 lung
LOX IMVI melanoma = system: LOX IMVI melanoma
HOP-92 NSCLC = system: HOP-92 NSCLC
SF-268 CNS = system: SF-268 CNS
MCF7 breast = system: MCF7 breast

SMILES | GI50 (HCT-116 colon) | TGI (HCT-116 colon) | GI50 (CCRF-CEM leukemia) | TGI (CCRF-CEM leukemia) | GI50 (OVCAR-3 ovarian) | TGI (OVCAR-3 ovarian) | GI50 (SF-295 CNS) | TGI (SF-295 CNS) | GI50 (NCI-H460 lung) | TGI (NCI-H460 lung) | GI50 (NCI-H522 lung) | TGI (NCI-H522 lung) | GI50 (LOX IMVI melanoma) | TGI (LOX IMVI melanoma) | GI50 (HOP-92 NSCLC) | TGI (HOP-92 NSCLC) | GI50 (SF-268 CNS) | TGI (SF-268 CNS) | GI50 (MCF7 breast) | TGI (MCF7 breast)
O=C(/C=C/c1ccccn1)c1ccccc1O | 1.85 µM | 3.75 µM | 1.71 µM | 5.43 µM | 1.71 µM | 3.5 µM | 2.23 µM | 4.67 µM | 2.28 µM | 5.17 µM | 1.56 µM | 3.08 µM | 1.85 µM | 4.43 µM | 2.1 µM | 4.91 µM | 2.53 µM | 7.02 µM | 2.47 µM | 10.4 µM
CCc1ccc(CCC(=O)Nc2ncc(Cc3cc(Cl)ccc3Cl)s2)o1 | 0.988 µM | 9.1 µM | 0.843 µM | > 50 µM | 1.33 µM | 4.76 µM | 1.25 µM | 7.17 µM | 1.88 µM | > 50 µM | 1.62 µM | > 50 µM | 2.04 µM | > 50 µM | 2.08 µM | > 50 µM | 3.6 µM | > 50 µM | 0.399 µM | > 50 µM
O=C(CCCCCCC(=O)N/N=C/c1ccc(N(c2ccccc2)c2ccccc2)cc1)NO | 0.349 µM | 1.97 µM | 2.64 µM | 16.4 µM | 1.45 µM | 4.58 µM | 1.77 µM | 4.47 µM | 1.54 µM | 8.58 µM | 1.92 µM | 6.92 µM | 0.432 µM | 1.61 µM | 1.67 µM | 4.25 µM | 3.27 µM | 13.6 µM | 0.601 µM | 11.3 µM
NC(=O)c1nnn(Cc2cc(Cl)c(C(=O)c3ccc(Cl)cc3)c(Cl)c2)c1N | > 9.09 µM | > 9.09 µM and 35.2 µM | 7.76 µM | > 100 µM | > 9.09 µM | > 9.09 µM and 25 µM |  | > 9.09 µM and 34 µM | 1.04 µM | > 9.09 µM and 40.2 µM | > 9.09 µM | > 9.09 µM and 38.8 µM | > 9.09 µM | > 47.2 µM | > 9.09 µM | > 9.09 µM and 48.8 µM | > 9.09 µM | > 9.09 µM and 29 µM |  | 32.9 µM
CCOC(=O)c1ccc2c(c1)[n+](=O)c(C(=O)c1ccc3ccccc3c1)c(C(F)(F)F)n2[O-] | 0.373 µM | 1.46 µM | 0.4 µM | 2.29 µM | 0.749 µM | 2.03 µM | 1.78 µM | 3.17 µM | 1.69 µM | 3.2 µM | 0.458 µM | 1.87 µM | 0.175 µM | 0.329 µM | 1.2 µM | 2.52 µM | 1.15 µM | 2.36 µM | 0.901 µM | 2.42 µM
O=C(N/N=C/c1coc2ccc(Cl)cc2c1=O)c1ccncc1 | 40.3 µM | > 100 µM | 28.1 µM | > 100 µM | 68.5 µM | > 100 µM | 50.1 µM | > 100 µM | 68.2 µM | > 100 µM | 58.2 µM | > 100 µM | 38.6 µM | > 100 µM | 93.8 µM | > 100 µM | 89.7 µM | > 100 µM | 47.2 µM | > 100 µM
O=C(CSc1nc2ccc([N+](=O)[O-])cc2[nH]1)Nc1cccc(Cl)c1 | 2.81 µM | 11.7 µM | 3.1 µM | > 100 µM | 2.38 µM | 14 µM | 2.07 µM | 6.8 µM | 3.22 µM | 13.1 µM | 1.87 µM | 8.9 µM | 3.05 µM | 13 µM | 0.421 µM | 3.3 µM | 3.04 µM | 21.8 µM | 2.41 µM | 10.5 µM
COC1OCC(OS(=O)(=O)c2ccc(C)cc2)C(OC(=O)c2ccccc2)C1OC(=O)c1ccccc1 (configuration not stated) | 3.45 µM | > 100 µM | 4.74 µM | > 100 µM | 2.95 µM | 61.7 µM | 3.63 µM | > 100 µM | 3.87 µM | > 100 µM | 1.56 µM | 7.09 µM | 5.05 µM | > 100 µM | 2.48 µM | > 100 µM | 9.75 µM | > 100 µM | 3.01 µM | > 100 µM
C=CCCC(O)c1ccc(C(O)CCCCCCCCCCCC)o1 (configuration not stated) | 14.8 µM | 28.6 µM | 18.4 µM | > 100 µM | 18.7 µM | 35.7 µM | 36.7 µM | > 100 µM | > 100 µM | > 100 µM | 17.3 µM | 44.4 µM | 16.2 µM | 29.7 µM | 25.5 µM | 51.2 µM | > 100 µM | > 100 µM | 82.2 µM | > 100 µM
COc1ccc(-c2cn(-c3ccc(Cl)cc3)c(=S)[nH]2)cc1OC | 3.96 µM | > 100 µM | > 100 µM | > 100 µM | 47.2 µM | > 100 µM | 6.05 µM | > 100 µM | 3.92 µM | > 100 µM | 21.5 µM | > 100 µM | 1.52 µM | 3.11 µM | 0.333 µM | 7.63 µM | 24.6 µM | > 100 µM | 4.77 µM | > 100 µM
O=C(Nc1ncc(Cc2ccccc2)s1)c1ccc2c(c1)OCCO2 | 0.0405 µM | > 100 µM | 0.0484 µM | > 100 µM | 0.0336 µM | 1.01 µM | 0.0304 µM | 1.49 µM | 0.0375 µM | > 34.5 µM | 0.0251 µM |  | 0.0546 µM | > 74.3 µM | 1.35 µM | > 100 µM | 0.459 µM | > 100 µM | 0.0546 µM | > 100 µM
CCCCCCCCCCCCOC1C(CNC(=O)C2OC3OC(C)(C)OC3C2NC(=O)CN2CCN(c3ccccn3)CC2)OC2OC(C)(C)OC21 (configuration not stated) | 1.61 µM | 3.04 µM | 2.5 µM | 5.5 µM | 1.54 µM | 3.02 µM | 1.77 µM | 3.48 µM | 1.77 µM | 3.38 µM | 1.66 µM | 3.2 µM | 1.88 µM | 3.53 µM | 1.7 µM | 3.18 µM | 2.26 µM | 6.31 µM | 1.94 µM | 4.58 µM
O=C(O)CNC(=O)c1ccccc1O |  | > 100 µM |  | > 100 µM |  | > 100 µM |  | > 100 µM |  | > 100 µM |  | > 100 µM |  | > 100 µM |  | > 100 µM |  | > 100 µM |  | > 100 µM
O=C1CSC(=S)N1c1ccc(F)cc1F |  | > 100 µM |  | 76.4 µM |  | > 100 µM |  | > 100 µM |  | > 100 µM |  | 47.3 µM |  | > 100 µM |  | > 100 µM |  | > 100 µM |  | 51.5 µM
Nc1ccccc1/C=N\Nc1ccccc1 | > 100 µM | > 100 µM | 0.431 µM | > 100 µM | 36.2 µM | > 100 µM | 1.63 µM | > 100 µM | 2.35 µM | > 100 µM | > 100 µM | > 100 µM | 1.29 µM | > 100 µM | 6.27 µM | > 100 µM | > 100 µM | > 100 µM | 8.92 µM | > 100 µM
